According to US4022832A, “2-Aminoacetamido-α-phenylbenzylideneaminoalkanol derivatives and process for the preparation thereof” (Sankyo Company Limited, priority 1975, dated 1977):

What was measured:
Assay type in all cases: in vivo
mice [1] = assay: Potentiation of anesthesia (thiopental); conditions: Mus musculus, po, P.O., 1 hour before 30mg/kg thiopental i.v., dose prolonging loss of righting reflex twice that of thiopental only, Litchfield and Wilcoxon
Procedure: (3) Potentiation of anesthesia
One hour after oral administration of the test compound, 30mg/kg of thiopental is intravenously injected, and the dose is determined which prolongs the duration of loss of the righting reflex twice that of the group administered only with thiopental.
(§1) (4) Calculation of ED50 values
(§2) The values are calculated according to the method of Litchfield and Wilcoxon [J. Pharmcol. Exp. Therap., 96, 99 (1949)].

mice [2] = assay: Anti-bemegride convulsant effect; conditions: Mus musculus, po, P.O., 1 hour before 30mg/kg bemegride s.c., observed for 30 minutes, Litchfield and Wilcoxon
Procedure: (1) Anti-bemegride convulsant effect
One hour after oral administration of the test compound, 30mg/kg of bemegride is subcutaneously injected and the anti-convulsant activity of the compound is observed for 30 minutes.
as §1, §2

mice [3] = assay: Anti-electroshock convulsant effect; conditions: Mus musculus, po, P.O., 1 hour before electroshock (1000V, 12.5mA, 0.2sec.) through both corneas, Litchfield and Wilcoxon
Procedure: (2) Anti-electroshock convulsant effect
One hour after oral administration of the test compound, an electroshock (1000V, 12.5mA, 0.2sec.) is applied through both corneas and anti-convulsant activity of the compound is observed.
as §1, §2

Structure (SMILES)	ED50 (mice [1])	ED50 (mice [2])	ED50 (mice [3])
CNC1=Nc2ccc(Cl)cc2C(c2ccccc2)=[N+]([O-])C1 [Chlordiazepoxide]	12 mg/kg	2.7 mg/kg	27 mg/kg
NCC(=O)Nc1ccc(Br)cc1C(=NCCO)c1ccccc1F [2-{[2-Aminoacetamido-5-bromo-α -(2-fluorophenyl)benzylidene]amino}ethanol]	2.9 mg/kg	0.31 mg/kg	8 mg/kg
